Results from patent US20250228878A1, “METHOD FOR THE SYNTHESIS OF EVOC PROBES” (OWLSTONE MEDICAL LIMITED, priority 2021, published 2025).

Columns and labels:
blood cells = test: D5-ethanol release in blood incubated with D5-EG or D5-EG-ME (headspace measurement); format: cell-based; details: human blood, 37° C., 2 hours
Experimental: Aim—The following experiment was performed to compare the levels of D5-ethanol produced by blood cells from both D5-ethyl-βD-glucuronide and the D5-ethyl-βD-glucuronide-methyl ester impurity. To understand how the probe behaves in human blood. To determine the background cleavage of the probe (D5-ethyl-βD-glucuronide) and the methyl ester (D5-ethyl-βD-glucuronide-methyl ester) in blood at different concentrations. The cleaved D5-ethanol was extracted from the headspace of the blood and measured with the D5-ethanol analytical method.
• Dilute D5-ethyl-βD-glucuronide in PBS to 1 ug/ul. • Dilute 10 ul of this in 90 ul PBS to 100 ng/ul to use for smaller doses. • Blood drawn on the same day will be despatched to OML after it has been screened. • Aliquot 600 ul of blood into ITEX headspace vials. 10 vials for probe samples and 10 vials for methyl ester samples. • Add indicated concentration of D5-ethyl-βD-glucuronide (Table 1) and D5-ethyl-bD-glucuronide meth methyl ester (Table 2) in each vial. • Incubate all samples at 37° C. for 2 hours in the water bath. • After 2 hours add 100 uM D-saccharic acid-1,4-lactone with a syringe through septum of each ITEX vial and mix gently to inhibit β-glucuronidase activity and put on ice (4° C.) • Place samples on ITEX autosampler and measure D5-ethanol with D5-ethanol analytical method
Results—β-glucuronidase is only expected to be present intracellularly in blood cells. D5-ethyl-βD-glucuronide (D5-EG) is not cell permeable and would therefore not enter into the cells to get cleaved by b-glucuronidase to produce D5-ethanol. Low D5-ethanol levels are therefore expected in blood when incubated with D5-ethyl-βD-glucuronide.
D5-ethyl-βD-glucuronide-methyl ester (D5-EG-ME) is expected to be more cell permeable. If this is the case it would be able to enter into the cell to get cleaved by intracellular β-glucuronidase resulting in an increased in D5-ethanol production.

β-glucuronidase = target: T1, β-glucuronidase (Homo sapiens, UniProt P08236); test: Breath test: D5-ethanol in exhaled breath after intravenous probe administration (TD-GC-MS); format: in vivo; details: for D5-ethanol detected on breath: 2 mg/kg intravenous
T1 construct: from tissue; host or cells: in vivo, human subjects (healthy subjects and a lung cancer patient); endogenous enzyme
T1 sequence (P08236 23-651): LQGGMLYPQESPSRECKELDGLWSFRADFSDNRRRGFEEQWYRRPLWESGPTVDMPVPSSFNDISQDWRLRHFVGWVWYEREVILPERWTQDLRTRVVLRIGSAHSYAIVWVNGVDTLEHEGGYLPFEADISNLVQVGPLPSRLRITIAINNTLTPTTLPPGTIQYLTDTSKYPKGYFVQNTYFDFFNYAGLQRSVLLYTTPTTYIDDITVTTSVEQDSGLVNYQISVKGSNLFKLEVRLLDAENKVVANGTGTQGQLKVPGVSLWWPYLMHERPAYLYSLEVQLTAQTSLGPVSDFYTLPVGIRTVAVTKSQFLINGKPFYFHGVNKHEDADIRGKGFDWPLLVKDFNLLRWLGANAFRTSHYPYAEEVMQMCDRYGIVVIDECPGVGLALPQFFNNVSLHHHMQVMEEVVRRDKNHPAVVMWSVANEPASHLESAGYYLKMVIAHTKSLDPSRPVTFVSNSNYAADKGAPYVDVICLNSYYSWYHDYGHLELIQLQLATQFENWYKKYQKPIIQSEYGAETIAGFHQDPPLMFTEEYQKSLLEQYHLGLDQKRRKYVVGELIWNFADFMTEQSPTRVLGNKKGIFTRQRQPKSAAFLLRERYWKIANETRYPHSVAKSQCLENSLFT
Experimental: D5-ethyl-βD-glucuronide was administered to healthy subjects and a lung cancer patient at a concentration of 2 mg/kg. Administration was intravenous.
The concentration of the metabolite was then measured in breath samples. Breath samples were collected using ReCIVA® Breath Sampler at the indicated times following probe administration. Following breath collection sorbent tubes were removed from ReCIVA®, capped off and sent to Owlstone Medical for analysis. At Owlstone Medical the sorbent tubes were analysed for D5-ethanol using TD-GC-MS.

[1] = test system: tumor specific extracellular β-glucuronidase; details: healthy versus tumor bearing mice; cited from earlier work
[2] = highest concentration tested (FIG. 2)

Row | SMILES | D5-ethanol production from blood cells (blood cells; [2]) | D5-ethanol detected on breath (β-glucuronidase; healthy controls) | D5-ethanol detected on breath (β-glucuronidase; lung cancer patient (Stage IIA)) | earliest time at which the metabolite (D5-ethanol) can be detected in breath after administration (β-glucuronidase; lung cancer patient, 2 mg/kg intravenous (FIG. 6)) | D5-ethanol signal in breath [1] | D5-ethanol production from blood cells (blood cells; second highest concentration tested (FIG. 2))
1 | [2H]C([2H])([2H])C([2H])([2H])O[C@@H]1O[C@H](C(=O)O)[C@@H](O)[C@H](O)[C@H]1O [D5-EG, D5-ethyl-βD-glucuronide] | only a small amount of D5-ethanol were produced | No D5-ethanol was detected | A D5 ethanol signal was detected | 10 min | discriminatory D5-ethanol signal in the breath of mice with tumors | 
2 | [2H]C([2H])([2H])C([2H])([2H])O[C@@H]1O[C@H](C(=O)OC)[C@@H](O)[C@H](O)[C@H]1O [D5-EG-ME, D5-ethyl-βD-glucuronide-methyl ester] | much higher D5-ethanol levels produced |  |  |  |  | much higher D5-ethanol levels produced
